Measured values: paper PMC7914117, “Ginkgolic acid and anacardic acid are specific covalent inhibitors of SARS-CoV-2 cysteine proteases” (Cell & Bioscience, 2021)

Legend:
SARS-CoV-2 PL^pro = SARS-CoV-2 PL^pro (Severe acute respiratory syndrome coronavirus 2, UniProt P0DTD1); test: SARS-CoV-2 PLpro fluorescence-based enzymatic inhibition assay (Z-RLRGG-AMC substrate); type: biochemical; details: for IC50: mean ± SD, triplicate, read-out: IC50 against PL^pro enzymatic activity; for inhibition at 20 µM: read-out: inhibition against PL^pro in high-throughput screen
SARS-CoV-2 3CL^pro = SARS-CoV-2 3CL^pro (Severe acute respiratory syndrome coronavirus 2, UniProt P0DTD1); test: SARS-CoV-2 3CLpro FRET enzymatic inhibition assay; type: biochemical; details: for IC50: 250 nM 3CLpro, 4 mM DTT, 30 min pre-incubation, 50 µM substrate, mean ± SD, triplicate, read-out: IC50 against 3CL^pro enzymatic activity; for IC50 shift upon addition of reducing reagent: 3CLpro assay in absence or presence of 4 mM DTT; for sensitivity of 3CLpro compared to PLpro: ratio of IC50 values, PLpro vs 3CLpro
Description: The SARS-CoV-2 3CL^pro was prokaryotic expressed and purified as previously described with slight modification. For enzymatic inhibition assay, the recombinant 3CL^pro (250 nM at a final concentration) was incubated with increasing concentrations of each compound in 90 µL reaction buffer (50 mM Tris–HCl, pH 7.3, 1 mM EDTA, 4mM DTT) for 30 min [6]. The reaction was initiated by adding 10 µL FRET-based peptidic substrate (Dabcyl-KTSAVLQ/SGFRKME-Edans) with a final concentration of 50 µM. The fluorescence signal was immediately measured every 20 s for 30 min using a Bio-Tek Synergy4 plate reader with filters for excitation at 336/20 nm and emission at 490/20 nm. The V0 of reactions were calculated to indicate the enzymatic activities. Three independent experiments were performed and IC50 curves were analyzed using four-parameter logistic regression in GraphPad Prism software.
For mechanism of action study, various concentrations of ginkgolic acid were mixed and incubated with increasing concentrations of 3CL^pro (100–1000 nM) in 90 µL reaction buffer for 30 min. Reactions were initiated by adding 10 µL substrate with a final concentration of 50 µM. At each concentration of ginkgolic acid, the V0s were plotted with the concentrations of 3CL^pro, and the data was fitted using linear regression analysis in GraphPad Prism software.

[1] = Cell-Titer Glo cytotoxicity assay; type: cell-based; details: African green monkey, Vero-E6 cells; for CC50 at 48 h: mean ± SD, triplicate; for viability at 48 h, 20 µM: at 20 µM
Description: (§1) To estimate the cytotoxicity of test compounds on VERO-E6 cells, Cell-Titer Glo® luminescent cell viability assay (Promega) was performed according to the manufacturer’s instruction. […] The half of the cytotoxic concentration (CC50) values were calculated from the percentages of cells whose viability was inhibited by test compounds at various concentrations.

Vero-E6 cells = test: Cell-Titer Glo cytotoxicity assay; type: cell-based; details: 48 h, mean ± SD, triplicate
Description: as §1

[2] = 100 nM PLpro, 4 mM DTT, 30 min pre-incubation, 30 µM substrate
[3] = compounds at 20 µM, 100 nM PLpro, 30 min pre-incubation, 4 mM DTT, 30 µM substrate, RFU at 10 min

SMILES	IC50 (SARS-CoV-2 PL^pro; [2])	inhibition at 20 µM (SARS-CoV-2 PL^pro; [3])	IC50 (SARS-CoV-2 3CL^pro)	IC50 shift upon addition of reducing reagent (SARS-CoV-2 3CL^pro)	sensitivity of 3CLpro compared to PLpro (SARS-CoV-2 3CL^pro)	CC50 at 48 h [1]	viability at 48 h, 20 µM [1]	CC10 (Vero-E6 cells)	type of enzymatic inhibition of PL^pro (SARS-CoV-2 PL^pro; V0 vs enzyme concentration (25–150 nM) at different inhibitor concentrations)	type of enzymatic inhibition of 3CL^pro (SARS-CoV-2 3CL^pro; V0 vs enzyme concentration (100–1000 nM) at different inhibitor concentrations)	inhibition against PL^pro in high-throughput screen (SARS-CoV-2 PL^pro; [3])
CCCCCCCCCCCCCCCc1cccc(O)c1C(=O)O [anacardic acid]	17.1 ± 1.3 µM	> 50%	2.07 ± 0.35 µM	no significant IC50 shift	about 10 times	25.5 ± 0.69 µM	> 90%	22.27 ± 0.26 µM			
CCCCCC/C=C\CCCCCCCc1cccc(O)c1C(=O)O [ginkgolic acid]	16.3 ± 0.64 µM	> 50%	1.79 ± 0.58 µM	no significant IC50 shift	about 10 times	27.9 ± 0.77 µM	> 90%	21.38 ± 0.52 µM	irreversible inhibitor	irreversible inhibitor	
C/C1=C2/[N-][C@H]([C@H](CC(N)=O)[C@@]2(C)CCC(=O)NC[C@@H](C)OP(=O)([O-])O[C@H]2[C@@H](O)[C@@H](n3cnc4cc(C)c(C)cc43)O[C@@H]2CO)[C@]2(C)N=C(/C(C)=C3N=C(/C=C4N=C1[C@@H](CCC(N)=O)C\4(C)C)[C@@H](CCC(N)=O)[C@]\3(C)CC(N)=O)[C@@H](CCC(N)=O)[C@]2(C)CC(N)=O.[CH3-].[Co+3] [methylcobalamin, reference compound]											more than 50%
